Results on one substance are retold here after US11173192B2 (priority 2016, dated 2021).

In one assay the test system is PR8. In kind it is cell-based, PR8 influenza A virus.
Assay [1] deals with PR8-infected RAW264.7 cells. In kind it is cell-based. The settings on record: RAW264.7 cells stably overexpressing EPRS vs empty vector.

For the substance “EPRS: glutamyl-prolyl-tRNA synthetase protein, 1512 aa, SEQ ID NO: 63; expressed from plasmid or purified”, in the assay with PR8, the “viral replication following infection with PR8” value is recorded as “significantly less viral replication”. In addition, in assay [1], the “IFN-β production following infection with PR8” value was “more production of IFN-β and IL-6”; the “IL-6 production following infection with PR8” value was “more production of IFN-β and IL-6”.
